# Test results as given in ChEMBL document CHEMBL4706534, “1,2,3-Triazole-containing hybrids with potential antibacterial activity against methicillin-resistant Staphylococcus aureus (MRSA)” (Eur J Med Chem, 2020).
# Columns and labels:
# Type in all cases: functional
# [1] = test system: Staphylococcus aureus; assay: Antibacterial activity against Methicillin-resistant Staphylococcus aureus 1 incubated for 16 hrs by agar dilution method
# [2] = test system: Staphylococcus aureus; assay: Antibacterial activity against Methicillin-resistant Staphylococcus aureus 2 incubated for 16 hrs by agar dilution method
# [3] = test system: Enterococcus; assay: Antibacterial activity against Vancomycin-resistant enterococcus 1 incubated for 16 hrs by agar dilution method
# [4] = test system: Enterococcus; assay: Antibacterial activity against Vancomycin-resistant enterococcus 2 incubated for 16 hrs by agar dilution method
# [5] = test system: Staphylococcus aureus; assay: Antibacterial activity against Methicillin-resistant Staphylococcus aureus incubated for 24 hrs by broth microdilution method
# [6] = test system: Staphylococcus aureus; assay: Antibacterial activity against methicillin-susceptible Staphylococcus aureus ATCC 25923 incubated for 18 hrs
# [7] = test system: Staphylococcus aureus; assay: Antibacterial activity against methicillin-resistant Staphylococcus aureus ATCC 33591 incubated for 18 hrs
# [8] = test system: Staphylococcus aureus; assay: Potency index, ratio of linezolid MIC to compound MIC for antibacterial activity against methicillin-resistant Staphylococcus aureus ATCC 33591
# [9] = test system: Staphylococcus aureus; assay: Resistance index, ratio of MIC for antibacterial activity against Staphylococcus aureus ATCC 43300 incubated for 18 hrs to MIC for antibacterial activity against Staphylococcus aureus ATCC 25923 incubated for 18 hrs
# [10] = test system: Staphylococcus aureus; assay: Antibacterial activity against methicillin-resistant Staphylococcus aureus ATCC 43300 incubated for 18 hrs
# [11] = test system: Staphylococcus aureus; assay: Antibacterial activity against Staphylococcus aureus ATCC 25923 by CLSI-based broth microdilution method
# [12] = test system: Staphylococcus aureus; assay: Resistance index, ratio of MIC for antibacterial activity against methicillin-resistant Staphylococcus aureus […] to MIC for antibacterial activity against methicillin-sensitive Staphylococcus aureus
# [13] = test system: Staphylococcus aureus; assay: Antibacterial activity against Methicillin-resistant Staphylococcus aureus KU60
# [14] = test system: Staphylococcus aureus; assay: Antibacterial activity against Methicillin-resistant Staphylococcus aureus ATCC 43300 incubated for 18 to 24 hrs by CLSI-based microbroth dilution method; conditions: time 18-24 hrs
# [15] = test system: Staphylococcus aureus; assay: Antibacterial activity against Methicillin-resistant Staphylococcus aureus ATCC 60202 incubated for 18 to 24 hrs by CLSI-based microbroth dilution method; conditions: time 18-24 hrs
# [16] = test system: Staphylococcus aureus; assay: Antibacterial activity against Methicillin-resistant Staphylococcus aureus ATCC 51345 incubated for 18 to 24 hrs by CLSI-based microbroth dilution method; conditions: time 18-24 hrs
# [17] = test system: Staphylococcus aureus; assay: Antibacterial activity against Methicillin-resistant Staphylococcus aureus ATCC 510019 incubated for 18 to 24 hrs by CLSI-based microbroth dilution method; conditions: time 18-24 hrs
# [18] = test system: Staphylococcus aureus; assay: Antibacterial activity against Methicillin-resistant Staphylococcus aureus ATCC 52056 incubated for 18 to 24 hrs by CLSI-based microbroth dilution method; conditions: time 18-24 hrs
# [19] = test system: Staphylococcus aureus; assay: Antibacterial activity against Methicillin-resistant Staphylococcus aureus ATCC 52351-2 incubated for 18 to 24 hrs by CLSI-based microbroth dilution method; conditions: time 18-24 hrs
# [20] = test system: Staphylococcus aureus; assay: Antibacterial activity against Methicillin-resistant Staphylococcus aureus ATCC 51599-2 incubated for 18 to 24 hrs by CLSI-based microbroth dilution method; conditions: time 18-24 hrs
# [21] = test system: Staphylococcus aureus; assay: Antibacterial activity against Methicillin-resistant Staphylococcus aureus ATCC 51033 incubated for 18 to 24 hrs by CLSI-based microbroth dilution method; conditions: time 18-24 hrs
# [22] = test system: Staphylococcus aureus; assay: Antibacterial activity against Methicillin-resistant Staphylococcus aureus ATCC 405055 incubated for 18 to 24 hrs by CLSI-based microbroth dilution method; conditions: time 18-24 hrs
# [23] = test system: Staphylococcus aureus; assay: Antibacterial activity against methicillin-resistant Staphylococcus aureus
# [24] = test system: Staphylococcus aureus; assay: Antibacterial activity against Methicillin-resistant Staphylococcus aureus USA100 by CLSI-based microdilution method
# [25] = test system: Staphylococcus aureus; assay: Antibacterial activity against Methicillin-resistant Staphylococcus aureus USA200 by CLSI-based microdilution method
# [26] = test system: Staphylococcus aureus; assay: Antibacterial activity against Methicillin-resistant Staphylococcus aureus USA300 by CLSI-based microdilution method
# [27] = test system: Staphylococcus aureus; assay: Antibacterial activity against Methicillin-resistant Staphylococcus aureus USA600 by CLSI-based microdilution method
# [28] = test system: Staphylococcus aureus; assay: Antibacterial activity against wild type Methicillin-resistant Staphylococcus aureus by CLSI-based microdilution method
# [29] = test system: Staphylococcus aureus; assay: Antibacterial activity against Methicillin-resistant Staphylococcus aureus ATCC 33591 incubated for 20 hrs by broth two-fold dilution method
# [30] = test system: Staphylococcus aureus; assay: Bactericidal activity against methicillin-resistant Staphylococcus aureus ATCC 33591 measured after 20 hrs
compound,measurement,setting,value
CC(C)C[C@H](C(=O)N[C@@H]1Cc2ccc(c(Cl)c2)Oc2cc3cc(c2O[C@@H]2O[C@H](CO)[C@@H](O)[C@H](O)[C@H]2O[C@H]2C[C@](C)(NCCCCCCCc4ccccc4)[C@H](O)[C@H](C)O2)Oc2ccc(cc2Cl)[C@@H](O)[C@@H]2NC(=O)[C@H](NC(=O)[C@@H]3NC(=O)[C@H](CC(=O)O)NC1=O)c1ccc(O)c(c1)-c1c(O)cc(O)cc1[C@H](C(=O)O)NC2=O)n1cc(COCCCCCCOCc2cn([C@H](CC(C)C)C(=O)N[C@@H]3Cc4ccc(c(Cl)c4)Oc4cc5cc(c4O[C@@H]4O[C@H](CO)[C@@H](O)[C@H](O)[C@H]4O[C@H]4C[C@](C)(NCCCCCCCc6ccccc6)[C@H](O)[C@H](C)O4)Oc4ccc(cc4Cl)[C@@H](O)[C@@H]4NC(=O)[C@H](NC(=O)[C@@H]5NC(=O)[C@H](CC(=O)O)NC3=O)c3ccc(O)c(c3)-c3c(O)cc(O)cc3[C@H](C(=O)O)NC4=O)nn2)nn1,MIC,[1],12.5 µg/mL
same,MIC,[2],12.5 µg/mL
same,MIC,[3],25 µg/mL
same,MIC,[4],12.5 µg/mL
O=C(N[C@H](CO)[C@H](O)c1ccc([N+](=O)[O-])cc1)C(Cl)Cl [CHLORAMPHENICOL],MIC,[5],11.6 µg/mL
CC(=O)NC[C@H]1CN(c2ccc(-n3cc(-c4ncccn4)nn3)c(F)c2)C(=O)O1,MIC,[6],2 µg/mL
same,MIC,[7],0.5 µg/mL
same,Ratio,[8],4
CC(C)C[C@H](C(=O)N[C@@H]1Cc2ccc(c(Cl)c2)Oc2cc3cc(c2O[C@@H]2O[C@H](CO)[C@@H](O)[C@H](O)[C@H]2O[C@H]2C[C@](C)(NCCCCCCCc4ccccc4)[C@H](O)[C@H](C)O2)Oc2ccc(cc2Cl)[C@@H](O)[C@@H]2NC(=O)[C@H](NC(=O)[C@@H]3NC(=O)[C@H](CC(=O)O)NC1=O)c1ccc(O)c(c1)-c1c(O)cc(O)cc1[C@H](C(=O)O)NC2=O)n1cc(COc2ccc(-c3ccc(OCc4cn([C@H](CC(C)C)C(=O)N[C@@H]5Cc6ccc(c(Cl)c6)Oc6cc7cc(c6O[C@@H]6O[C@H](CO)[C@@H](O)[C@H](O)[C@H]6O[C@H]6C[C@](C)(NCCCCCCCc8ccccc8)[C@H](O)[C@H](C)O6)Oc6ccc(cc6Cl)[C@@H](O)[C@@H]6NC(=O)[C@H](NC(=O)[C@@H]7NC(=O)[C@H](CC(=O)O)NC5=O)c5ccc(O)c(c5)-c5c(O)cc(O)cc5[C@H](C(=O)O)NC6=O)nn4)cc3)cc2)nn1,MIC,[1],12.5 µg/mL
same,MIC,[2],12.5 µg/mL
same,MIC,[4],25 µg/mL
NC[C@H]1O[C@@H](O[C@@H](Cc2cn(CCCCCCCCCCOc3ccc(C(=O)c4ccccc4)cc3)nn2)[C@H]2O[C@@H](n3ccc(=O)[nH]c3=O)[C@H](O)[C@@H]2O)[C@H](O)[C@@H]1O.O=C(O)C(F)(F)F,Ratio,[9],0.5
same,MIC,[10],8 µg/mL
CC(C)NC(=N)c1ccc2[nH]c(-c3ccc(OCc4cn(-c5ccccc5)nn4)cc3)nc2c1,MIC,[11],8 µg/mL
same,Ratio,[12],0.125
O=C(c1ccccc1)N1CCN(c2ccc(N3C[C@H](Cn4ccnn4)OC3=O)cc2F)CC1,MIC,[13],0.25 µg/mL
O=C(C(Cl)Cl)N1CCN(c2ccc(N3C[C@H](Cn4ccnn4)OC3=O)cc2F)CC1,MIC,[13],0.25 µg/mL
Cc1nc(C)c(COc2ccc(N3C[C@H](Cn4ccnn4)OC3=O)cc2)nc1C,MIC,[14],4 µg/mL
same,MIC,[15],4 µg/mL
same,MIC,[16],4 µg/mL
same,MIC,[17],4 µg/mL
same,MIC,[18],4 µg/mL
same,MIC,[19],4 µg/mL
same,MIC,[20],4 µg/mL
same,MIC,[21],4 µg/mL
same,MIC,[22],4 µg/mL
Cc1ccc(-n2cc(Cn3c4ccccc4c(=O)c4cc(C)ccc43)nn2)cc1,MIC,[5],19.6 µg/mL
CC(=O)NC[C@H]1CN(c2ccc(-n3cc(-c4ccccn4)nn3)c(F)c2)C(=O)O1,MIC,[6],2 µg/mL
same,MIC,[7],0.5 µg/mL
same,Ratio,[8],4
CC(=O)NC[C@H]1CN(c2ccc(-n3cc(-c4ccncn4)nn3)c(F)c2)C(=O)O1,MIC,[6],2 µg/mL
same,MIC,[7],0.5 µg/mL
same,Ratio,[8],4
COc1c(N2C[C@@H]3CCCN[C@@H]3C2)c(F)cc2c(=O)c(C(=O)O)cn(C3CC3)c12 [MOXIFLOXACIN],MIC,[23],8 µg/mL
NC[C@@H]1O[C@H](O[C@H]2[C@@H](O)[C@H](O[C@@H]3[C@@H](O)[C@H](N)C[C@H](N)[C@H]3O[C@H]3O[C@H](CN)[C@@H](O)[C@H](O)[C@H]3N)O[C@@H]2Cn2cc(COCCCCCCCCOCc3cn(C[C@H]4O[C@@H](O[C@@H]5[C@@H](O)[C@H](N)C[C@H](N)[C@H]5O[C@H]5O[C@H](CN)[C@@H](O)[C@H](O)[C@H]5N)[C@H](O)[C@@H]4O[C@H]4O[C@@H](CN)[C@@H](O)[C@H](O)[C@H]4N)nn3)nn2)[C@H](N)[C@@H](O)[C@@H]1O,MIC,[24],25 µg/mL
same,MIC,[25],25 µg/mL
same,MIC,[26],25 µg/mL
same,MIC,[27],25 µg/mL
same,MIC,[28],25 µg/mL
c1ccc(SCn2cc(COc3ccc(-c4nc5cc(C6=NCCN6)ccc5[nH]4)cc3)nn2)cc1,MIC,[11],8 µg/mL
same,Ratio,[12],0.125
CC(C)C[C@@H](N)C(=O)N[C@H]1C(=O)N[C@@H](CC(N)=O)C(=O)N[C@H]2C(=O)N[C@H]3C(=O)N[C@H](C(=O)N[C@H](C(=O)O)c4cc(O)cc(O)c4-c4cc3ccc4O)[C@H](O)c3ccc(c(Cl)c3)Oc3cc2cc(c3O[C@@H]2O[C@H](CO)[C@@H](O)[C@H](O)[C@H]2O[C@H]2C[C@](C)(N)[C@H](O)[C@H](C)O2)Oc2ccc(cc2Cl)[C@H]1O,MIC,[3],> 50 µg/mL
same,MIC,[4],> 50 µg/mL
COc1cc(/C=C/c2ccc(O)cc2)cc(OC)c1 [PTEROSTILBENE],MIC,[29],41 µg/mL
same,MBC,[30],41 µg/mL
NC[C@H]1O[C@@H](O[C@@H](Cn2cc(CCCCCCCCCCOc3ccc(C(=O)c4ccccc4)cc3)nn2)[C@H]2O[C@@H](n3ccc(=O)[nH]c3=O)[C@H](O)[C@@H]2O)[C@H](O)[C@@H]1O.O=C(O)C(F)(F)F,Ratio,[9],1
same,MIC,[10],8 µg/mL
COc1cc(/C=C/c2ccc(OCc3cn(-c4ccc(C(=O)O)cc4)nn3)cc2)cc(OC)c1,MIC,[29],1.2 µg/mL
same,MBC,[30],19.5 µg/mL
NC[C@@H]1O[C@H](O[C@H]2[C@@H](O)[C@H](O[C@@H]3[C@@H](O)[C@H](N)C[C@H](N)[C@H]3O[C@H]3O[C@H](CN)[C@@H](O)[C@H](O)[C@H]3N)O[C@@H]2CO)[C@H](N)[C@@H](O)[C@@H]1O [FRAMYCETIN],MIC,[24],> 50 µg/mL
same,MIC,[25],> 50 µg/mL
same,MIC,[26],> 50 µg/mL
same,MIC,[27],> 50 µg/mL
same,MIC,[28],> 50 µg/mL
CC(C)NC(=N)c1ccc2[nH]c(-c3ccc(OCc4cn(CSc5ccccc5)nn4)cc3)nc2c1,MIC,[11],8 µg/mL
same,Ratio,[12],0.125
CC(C)C[C@H](C(=O)N[C@@H]1Cc2ccc(c(Cl)c2)Oc2cc3cc(c2O[C@@H]2O[C@H](CO)[C@@H](O)[C@H](O)[C@H]2O[C@H]2C[C@](C)(NCCCCCCCc4ccccc4)[C@H](O)[C@H](C)O2)Oc2ccc(cc2Cl)[C@@H](O)[C@@H]2NC(=O)[C@H](NC(=O)[C@@H]3NC(=O)[C@H](CC(=O)O)NC1=O)c1ccc(O)c(c1)-c1c(O)cc(O)cc1[C@H](C(=O)O)NC2=O)n1cc(COCCOCCOCc2cn([C@H](CC(C)C)C(=O)N[C@@H]3Cc4ccc(c(Cl)c4)Oc4cc5cc(c4O[C@@H]4O[C@H](CO)[C@@H](O)[C@H](O)[C@H]4O[C@H]4C[C@](C)(NCCCCCCCc6ccccc6)[C@H](O)[C@H](C)O4)Oc4ccc(cc4Cl)[C@@H](O)[C@@H]4NC(=O)[C@H](NC(=O)[C@@H]5NC(=O)[C@H](CC(=O)O)NC3=O)c3ccc(O)c(c3)-c3c(O)cc(O)cc3[C@H](C(=O)O)NC4=O)nn2)nn1,MIC,[1],6.25 µg/mL
same,MIC,[2],12.5 µg/mL
same,MIC,[3],25 µg/mL
same,MIC,[4],12.5 µg/mL
Cc1nc(C)c(COc2ccc(N3C[C@H](Cn4ccnn4)OC3=O)cc2F)nc1C,MIC,[14],4 µg/mL
same,MIC,[15],4 µg/mL
same,MIC,[16],4 µg/mL
same,MIC,[17],4 µg/mL
same,MIC,[18],4 µg/mL
same,MIC,[19],4 µg/mL
same,MIC,[20],4 µg/mL
same,MIC,[21],4 µg/mL
same,MIC,[22],4 µg/mL
CC(C)(C)C(=O)N1CCN(c2ccc(N3C[C@H](Cn4ccnn4)OC3=O)cc2F)CC1,MIC,[13],0.25 µg/mL
CC(C)NC(=N)c1ccc2[nH]c(-c3ccc(OCc4cn(-c5ccccc5Cl)nn4)cc3)nc2c1,MIC,[11],8 µg/mL
same,Ratio,[12],0.125
